± gives the expanded uncertainty stated by the source.
Experiment: molar heat capacity at constant pressure
Settings: 101.33 kPa, DSC

[Ag+].[Ag+].[S-2] [silver sulfide]
molar heat capacity at constant pressure (299.71 K, Crystal 3): 73.92 ± 3.1 J/K/mol
molar heat capacity at constant pressure (300.71 K, Crystal 3): 74.02 ± 3.1 J/K/mol
molar heat capacity at constant pressure (301.71 K, Crystal 3): 74.12 ± 3.1 J/K/mol
molar heat capacity at constant pressure (302.71 K, Crystal 3): 74.21 ± 3.1 J/K/mol
molar heat capacity at constant pressure (303.71 K, Crystal 3): 74.31 ± 3.1 J/K/mol
molar heat capacity at constant pressure (304.71 K, Crystal 3): 74.4 ± 3.1 J/K/mol
molar heat capacity at constant pressure (305.71 K, Crystal 3): 74.46 ± 3.1 J/K/mol
molar heat capacity at constant pressure (306.71 K, Crystal 3): 74.53 ± 3.1 J/K/mol
molar heat capacity at constant pressure (307.71 K, Crystal 3): 74.62 ± 3.1 J/K/mol
molar heat capacity at constant pressure (308.71 K, Crystal 3): 74.69 ± 3.1 J/K/mol
molar heat capacity at constant pressure (309.71 K, Crystal 3): 74.77 ± 3.1 J/K/mol
molar heat capacity at constant pressure (310.71 K, Crystal 3): 74.85 ± 3.1 J/K/mol
molar heat capacity at constant pressure (311.71 K, Crystal 3): 74.92 ± 3.1 J/K/mol
molar heat capacity at constant pressure (312.71 K, Crystal 3): 75.14 ± 3.1 J/K/mol
molar heat capacity at constant pressure (313.71 K, Crystal 3): 75.21 ± 3.1 J/K/mol
molar heat capacity at constant pressure (314.71 K, Crystal 3): 75.29 ± 3.1 J/K/mol
molar heat capacity at constant pressure (315.71 K, Crystal 3): 75.36 ± 3.1 J/K/mol
molar heat capacity at constant pressure (316.71 K, Crystal 3): 75.42 ± 3.1 J/K/mol
molar heat capacity at constant pressure (317.71 K, Crystal 3): 75.49 ± 3.1 J/K/mol
molar heat capacity at constant pressure (318.71 K, Crystal 3): 75.53 ± 3.1 J/K/mol
molar heat capacity at constant pressure (319.71 K, Crystal 3): 75.58 ± 3.1 J/K/mol
molar heat capacity at constant pressure (320.71 K, Crystal 3): 75.65 ± 3.1 J/K/mol
molar heat capacity at constant pressure (321.71 K, Crystal 3): 75.71 ± 3.1 J/K/mol
molar heat capacity at constant pressure (322.71 K, Crystal 3): 75.78 ± 3.1 J/K/mol
molar heat capacity at constant pressure (323.71 K, Crystal 3): 75.84 ± 3.1 J/K/mol
molar heat capacity at constant pressure (324.71 K, Crystal 3): 75.9 ± 3.1 J/K/mol
molar heat capacity at constant pressure (325.71 K, Crystal 3): 75.97 ± 3.1 J/K/mol
molar heat capacity at constant pressure (326.71 K, Crystal 3): 76.03 ± 3.1 J/K/mol
molar heat capacity at constant pressure (327.71 K, Crystal 3): 76.09 ± 3.1 J/K/mol
molar heat capacity at constant pressure (328.71 K, Crystal 3): 76.14 ± 3.1 J/K/mol
molar heat capacity at constant pressure (329.71 K, Crystal 3): 76.2 ± 3.1 J/K/mol
molar heat capacity at constant pressure (330.71 K, Crystal 3): 76.26 ± 3.1 J/K/mol
molar heat capacity at constant pressure (331.71 K, Crystal 3): 76.31 ± 3.1 J/K/mol
molar heat capacity at constant pressure (332.71 K, Crystal 3): 76.37 ± 3.1 J/K/mol
molar heat capacity at constant pressure (333.71 K, Crystal 3): 76.42 ± 3.1 J/K/mol
molar heat capacity at constant pressure (334.71 K, Crystal 3): 76.48 ± 3.1 J/K/mol
molar heat capacity at constant pressure (335.71 K, Crystal 3): 76.53 ± 3.1 J/K/mol
molar heat capacity at constant pressure (336.71 K, Crystal 3): 76.58 ± 3.1 J/K/mol
molar heat capacity at constant pressure (337.71 K, Crystal 3): 76.63 ± 3.1 J/K/mol
molar heat capacity at constant pressure (338.71 K, Crystal 3): 76.68 ± 3.1 J/K/mol
molar heat capacity at constant pressure (339.71 K, Crystal 3): 76.74 ± 3.1 J/K/mol
molar heat capacity at constant pressure (340.71 K, Crystal 3): 76.79 ± 3.1 J/K/mol
molar heat capacity at constant pressure (341.71 K, Crystal 3): 76.84 ± 3.1 J/K/mol
molar heat capacity at constant pressure (342.71 K, Crystal 3): 76.89 ± 3.1 J/K/mol
molar heat capacity at constant pressure (343.71 K, Crystal 3): 76.93 ± 3.2 J/K/mol
molar heat capacity at constant pressure (344.71 K, Crystal 3): 76.98 ± 3.2 J/K/mol
molar heat capacity at constant pressure (345.71 K, Crystal 3): 77.03 ± 3.2 J/K/mol
molar heat capacity at constant pressure (346.71 K, Crystal 3): 77.08 ± 3.2 J/K/mol
molar heat capacity at constant pressure (347.71 K, Crystal 3): 77.13 ± 3.2 J/K/mol
molar heat capacity at constant pressure (348.71 K, Crystal 3): 77.18 ± 3.2 J/K/mol
molar heat capacity at constant pressure (349.71 K, Crystal 3): 77.22 ± 3.2 J/K/mol
molar heat capacity at constant pressure (350.71 K, Crystal 3): 77.27 ± 3.2 J/K/mol
molar heat capacity at constant pressure (351.71 K, Crystal 3): 77.32 ± 3.2 J/K/mol
molar heat capacity at constant pressure (352.71 K, Crystal 3): 77.37 ± 3.2 J/K/mol
molar heat capacity at constant pressure (353.71 K, Crystal 3): 77.42 ± 3.2 J/K/mol
molar heat capacity at constant pressure (354.71 K, Crystal 3): 77.46 ± 3.2 J/K/mol
molar heat capacity at constant pressure (355.71 K, Crystal 3): 77.51 ± 3.2 J/K/mol
molar heat capacity at constant pressure (356.71 K, Crystal 3): 77.56 ± 3.2 J/K/mol
molar heat capacity at constant pressure (357.71 K, Crystal 3): 77.61 ± 3.2 J/K/mol
molar heat capacity at constant pressure (358.71 K, Crystal 3): 77.66 ± 3.2 J/K/mol
molar heat capacity at constant pressure (359.71 K, Crystal 3): 77.71 ± 3.2 J/K/mol
molar heat capacity at constant pressure (360.71 K, Crystal 3): 77.76 ± 3.2 J/K/mol
molar heat capacity at constant pressure (361.71 K, Crystal 3): 77.81 ± 3.2 J/K/mol
molar heat capacity at constant pressure (362.71 K, Crystal 3): 77.86 ± 3.2 J/K/mol
molar heat capacity at constant pressure (363.71 K, Crystal 3): 77.91 ± 3.2 J/K/mol
molar heat capacity at constant pressure (364.71 K, Crystal 3): 77.96 ± 3.2 J/K/mol
molar heat capacity at constant pressure (365.71 K, Crystal 3): 78.01 ± 3.2 J/K/mol
molar heat capacity at constant pressure (366.71 K, Crystal 3): 78.07 ± 3.2 J/K/mol
molar heat capacity at constant pressure (367.71 K, Crystal 3): 78.12 ± 3.2 J/K/mol
molar heat capacity at constant pressure (368.71 K, Crystal 3): 78.17 ± 3.2 J/K/mol
molar heat capacity at constant pressure (369.71 K, Crystal 3): 78.23 ± 3.2 J/K/mol
molar heat capacity at constant pressure (370.71 K, Crystal 3): 78.29 ± 3.2 J/K/mol
molar heat capacity at constant pressure (371.71 K, Crystal 3): 78.34 ± 3.2 J/K/mol
molar heat capacity at constant pressure (372.71 K, Crystal 3): 78.4 ± 3.2 J/K/mol
molar heat capacity at constant pressure (373.71 K, Crystal 3): 78.46 ± 3.2 J/K/mol
molar heat capacity at constant pressure (374.71 K, Crystal 3): 78.52 ± 3.2 J/K/mol
molar heat capacity at constant pressure (375.71 K, Crystal 3): 78.58 ± 3.2 J/K/mol
molar heat capacity at constant pressure (376.71 K, Crystal 3): 78.64 ± 3.2 J/K/mol
molar heat capacity at constant pressure (377.71 K, Crystal 3): 78.7 ± 3.2 J/K/mol
molar heat capacity at constant pressure (378.71 K, Crystal 3): 78.76 ± 3.2 J/K/mol
molar heat capacity at constant pressure (379.71 K, Crystal 3): 78.83 ± 3.2 J/K/mol
molar heat capacity at constant pressure (380.71 K, Crystal 3): 78.89 ± 3.2 J/K/mol
molar heat capacity at constant pressure (381.71 K, Crystal 3): 78.96 ± 3.2 J/K/mol
molar heat capacity at constant pressure (382.71 K, Crystal 3): 79.03 ± 3.2 J/K/mol
molar heat capacity at constant pressure (383.71 K, Crystal 3): 79.1 ± 3.2 J/K/mol
molar heat capacity at constant pressure (384.71 K, Crystal 3): 79.17 ± 3.2 J/K/mol
molar heat capacity at constant pressure (385.71 K, Crystal 3): 79.24 ± 3.2 J/K/mol
molar heat capacity at constant pressure (386.71 K, Crystal 3): 79.31 ± 3.2 J/K/mol
molar heat capacity at constant pressure (387.71 K, Crystal 3): 79.39 ± 3.2 J/K/mol
molar heat capacity at constant pressure (388.71 K, Crystal 3): 79.46 ± 3.2 J/K/mol
molar heat capacity at constant pressure (389.71 K, Crystal 3): 79.54 ± 3.2 J/K/mol
molar heat capacity at constant pressure (390.71 K, Crystal 3): 79.62 ± 3.2 J/K/mol
molar heat capacity at constant pressure (391.71 K, Crystal 3): 79.7 ± 3.2 J/K/mol
molar heat capacity at constant pressure (392.71 K, Crystal 3): 79.79 ± 3.2 J/K/mol
molar heat capacity at constant pressure (393.71 K, Crystal 3): 79.87 ± 3.2 J/K/mol
molar heat capacity at constant pressure (394.71 K, Crystal 3): 79.96 ± 3.2 J/K/mol
molar heat capacity at constant pressure (395.71 K, Crystal 3): 80.04 ± 3.2 J/K/mol
molar heat capacity at constant pressure (396.71 K, Crystal 3): 80.13 ± 3.2 J/K/mol
molar heat capacity at constant pressure (397.71 K, Crystal 3): 80.23 ± 3.3 J/K/mol
molar heat capacity at constant pressure (398.71 K, Crystal 3): 80.32 ± 3.3 J/K/mol
molar heat capacity at constant pressure (399.71 K, Crystal 3): 80.41 ± 3.3 J/K/mol
molar heat capacity at constant pressure (400.71 K, Crystal 3): 80.5 ± 3.3 J/K/mol
molar heat capacity at constant pressure (401.71 K, Crystal 3): 80.6 ± 3.3 J/K/mol
molar heat capacity at constant pressure (402.71 K, Crystal 3): 80.69 ± 3.3 J/K/mol
molar heat capacity at constant pressure (403.71 K, Crystal 3): 80.78 ± 3.3 J/K/mol
molar heat capacity at constant pressure (404.71 K, Crystal 3): 80.88 ± 3.3 J/K/mol
molar heat capacity at constant pressure (405.71 K, Crystal 3): 80.98 ± 3.3 J/K/mol
molar heat capacity at constant pressure (406.71 K, Crystal 3): 81.09 ± 3.3 J/K/mol
molar heat capacity at constant pressure (407.71 K, Crystal 3): 81.19 ± 3.3 J/K/mol
molar heat capacity at constant pressure (408.71 K, Crystal 3): 81.3 ± 3.3 J/K/mol
molar heat capacity at constant pressure (409.71 K, Crystal 3): 81.41 ± 3.3 J/K/mol
molar heat capacity at constant pressure (410.71 K, Crystal 3): 81.52 ± 3.3 J/K/mol
molar heat capacity at constant pressure (411.71 K, Crystal 3): 81.63 ± 3.3 J/K/mol
molar heat capacity at constant pressure (412.71 K, Crystal 3): 81.75 ± 3.3 J/K/mol
molar heat capacity at constant pressure (413.71 K, Crystal 3): 81.87 ± 3.3 J/K/mol
molar heat capacity at constant pressure (414.71 K, Crystal 3): 81.99 ± 3.3 J/K/mol
molar heat capacity at constant pressure (415.71 K, Crystal 3): 82.11 ± 3.3 J/K/mol
molar heat capacity at constant pressure (416.71 K, Crystal 3): 82.24 ± 3.3 J/K/mol
molar heat capacity at constant pressure (417.71 K, Crystal 3): 82.37 ± 3.3 J/K/mol
molar heat capacity at constant pressure (418.71 K, Crystal 3): 82.5 ± 3.3 J/K/mol
molar heat capacity at constant pressure (419.71 K, Crystal 3): 82.64 ± 3.3 J/K/mol
molar heat capacity at constant pressure (420.71 K, Crystal 3): 82.77 ± 3.3 J/K/mol
molar heat capacity at constant pressure (421.71 K, Crystal 3): 82.91 ± 3.3 J/K/mol
molar heat capacity at constant pressure (422.71 K, Crystal 3): 83.06 ± 3.3 J/K/mol
molar heat capacity at constant pressure (423.71 K, Crystal 3): 83.2 ± 3.4 J/K/mol
molar heat capacity at constant pressure (424.71 K, Crystal 3): 83.35 ± 3.4 J/K/mol
molar heat capacity at constant pressure (425.71 K, Crystal 3): 83.51 ± 3.4 J/K/mol
molar heat capacity at constant pressure (426.71 K, Crystal 3): 83.66 ± 3.4 J/K/mol
molar heat capacity at constant pressure (427.71 K, Crystal 3): 83.82 ± 3.4 J/K/mol
molar heat capacity at constant pressure (428.71 K, Crystal 3): 83.98 ± 3.4 J/K/mol
molar heat capacity at constant pressure (429.71 K, Crystal 3): 84.15 ± 3.4 J/K/mol
molar heat capacity at constant pressure (430.71 K, Crystal 3): 84.32 ± 3.4 J/K/mol
molar heat capacity at constant pressure (431.71 K, Crystal 3): 84.49 ± 3.4 J/K/mol
molar heat capacity at constant pressure (432.71 K, Crystal 3): 84.66 ± 3.4 J/K/mol
molar heat capacity at constant pressure (433.71 K, Crystal 3): 84.84 ± 3.4 J/K/mol
molar heat capacity at constant pressure (434.71 K, Crystal 3): 85.01 ± 3.4 J/K/mol
molar heat capacity at constant pressure (435.71 K, Crystal 3): 85.19 ± 3.4 J/K/mol
molar heat capacity at constant pressure (436.71 K, Crystal 3): 85.36 ± 3.4 J/K/mol
molar heat capacity at constant pressure (437.71 K, Crystal 3): 85.54 ± 3.4 J/K/mol
molar heat capacity at constant pressure (438.71 K, Crystal 3): 85.72 ± 3.4 J/K/mol
molar heat capacity at constant pressure (439.71 K, Crystal 3): 85.91 ± 3.4 J/K/mol
molar heat capacity at constant pressure (440.71 K, Crystal 3): 86.2 ± 3.4 J/K/mol
molar heat capacity at constant pressure (441.71 K, Crystal 3): 86.6 ± 3.5 J/K/mol
molar heat capacity at constant pressure (442.71 K, Crystal 3): 87.1 ± 3.5 J/K/mol
molar heat capacity at constant pressure (443.71 K, Crystal 3): 87.6 ± 3.5 J/K/mol
molar heat capacity at constant pressure (444.71 K, Crystal 3): 88.38 ± 3.5 J/K/mol
molar heat capacity at constant pressure (446.71 K, Crystal 3): 90.5 ± 3.6 J/K/mol
molar heat capacity at constant pressure (447.71 K, Crystal 3): 92.95 ± 3.7 J/K/mol
molar heat capacity at constant pressure (448.71 K, Crystal 3): 93.65 ± 3.7 J/K/mol
molar heat capacity at constant pressure (449.71 K, Crystal 3): 94.94 ± 3.7 J/K/mol
molar heat capacity at constant pressure (461.57 K, Crystal 2): 90.56 ± 3.6 J/K/mol
molar heat capacity at constant pressure (462.57 K, Crystal 2): 90.49 ± 3.6 J/K/mol
molar heat capacity at constant pressure (463.57 K, Crystal 2): 90.42 ± 3.6 J/K/mol
